Data as given in US20160038551A1, “STABILIZED MESEMBRINE COMPOSITIONS” (BOTANICAL RESOURCE HOLDINGS PROPRIETARY LIMITED, priority 2013, published 2016).

Test system: serotonin-uptake
Assay: Serotonin-uptake inhibition studies
Conditions: extensive studies conducted in respect of the present invention; no details

In the case of COc1ccc([C@@]23CCC(=O)C[C@@H]2N(C)CC3)cc1OC [mesembrine], the serotonin-uptake inhibition properties is reported as “do not show serotonin-uptake inhibition properties”.
